According to patent US10653688B2, “6-(6-membered heteroaryl and aryl)isoquinolin-3-yl carboxamides and preparation and use thereof” (Samumed, LLC, priority 2017, dated 2020):
Read-outs that look alike come from different tables or passages of the source.

Assays:
[1] = tested on: Wnt activity (SW480 colon carcinoma cells stably expressing the Sp5-Luc reporter gene); assay: Wnt activity screening assay (Sp5-Luc reporter gene assay); type: cell-based, human; details: Homo sapiens; for EC50: 36 to 48 hours; for inhibition at 10 µM: read-out: percent inhibition at 10 μM (given for EC50 >10 μM), 10 μM
Outline: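 EC50 values come from a variable-slope four-parameter fit of luminescence normalized to DMSO-only wells. The read-out follows 36–48 h incubation at 37 °C, 5% CO2, in DMEM containing 1% fetal bovine serum. Cells are hygromycin-selected SW480 stably expressing firefly luciferase under a Wnt-responsive Sp5 promoter (eight TCF/LEF sites).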

recombinant GSK3β kinase = recombinant GSK3β kinase (Homo sapiens (Human), UniProt P49841); assay: GSK3β kinase assay (Ser/Thr 09 peptide Z-lyte, FRET); type: biochemical;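 further: FRET read-out as coumarin over fluorescein emission ratio, compounds incubated one hour at room temperature, IC50 from dose-response curve fit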
[2] = tested on: Tau phosphorylation at Ser396 (pSer396) in SH-SY5Y cells; assay: Tau phosphorylation at Ser396 (pSer396) cell assay, ELISA/western blot; type: cell-based, human; details: Homo sapiens
Procedure: SH-SY5Y cells (human neuroblastoma) were cultured in DMEM/F-12 medium supplemented with 15% FBS, Non-essential Amino Acid and Penicillin/Streptomycin. Two days before treatment, cells were seeded onto 96 well plates at 5×10^4 cells/well.
The above synthesized compounds were screened using the cell assay procedure to assess decrease Tau phosphorylation at Ser396 (pSer396) described below.
DMSO-resuspended compounds were dispensed to 8 wells as a serial titration from 10 μM to 4.6 nM final in medium and cells were exposed overnight (16-18 h) in a humidified incubator at 36.6c before harvest.
Cells were lysed with RIPA buffer complemented with phosphatase and protease inhibitors then lysates were spun down at 12,000 g for 10 min to remove any cellular debris. Lysates are then either directly tested for pSer396 by ELISA (Life Technology, Kit KHB7031) or loaded on NuPage Bis-Tris gels for western blot analysis. Colorimetric detection of ELISA signal is performed by Cytation3 plate reader (Biotek) and the chemiluminescence signal for HRP-linked antibodies used in western blotting is detected using a Carestream Image Station. The same pSer396 antibody is used for detection of pTau in both assays.
Blot densitometry for pSer396 and β-actin were analyzed using ImageJ (NIH) and pSer396 Tau ELISA signal was used to plot, draw the curve fitting, and determine each compounds EC50 in Prism (GraphPad).

[3] = tested on: IL-6 in human peripheral blood mononuclear cells (huPBMCs); assay: IL-6 inhibition in LPS-stimulated human peripheral blood mononuclear cells (HTRF); type: cell-based; details: Homo sapiens, PBMC; for EC50: LPS 50 ng/mL, 22 hours, IL-6 HTRF; for inhibition at 10 µM: read-out: percent inhibition at 10 μM (given for EC50 >10 μM), LPS, IL-6, 10 μM
Outline: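 Compound-treated huPBMCs (1×10e6 cells/mL, 1% FBS-RPMI) were stimulated after 2 h with LPS (50 ng/mL) for another 22 h at 37° C. An anti-IL-6 HTRF pair reported IL-6 as the 665/620 nm ratio; activity relative to DMSO, EC50 by 4-parameter Levenberg-Marquardt fitting, duplicates.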

[4] = molecular target: recombinant DYRK1A kinase (Homo sapiens (Human), UniProt Q13627); assay: DYRK1A kinase assay (Ser/Thr 18 peptide Z-lyte, FRET)
[5] = GSK3β kinase, head says EC50, method says IC50, ATP 46 μM
[6] = SH-SY5Y cells, overnight (16-18 h), read-out: pSer396 Tau EC50
[7] = DYRK1A kinase, head says EC50, method says IC50, ATP 30 μM

Chain of recombinant GSK3β kinase (P49841 whole entry): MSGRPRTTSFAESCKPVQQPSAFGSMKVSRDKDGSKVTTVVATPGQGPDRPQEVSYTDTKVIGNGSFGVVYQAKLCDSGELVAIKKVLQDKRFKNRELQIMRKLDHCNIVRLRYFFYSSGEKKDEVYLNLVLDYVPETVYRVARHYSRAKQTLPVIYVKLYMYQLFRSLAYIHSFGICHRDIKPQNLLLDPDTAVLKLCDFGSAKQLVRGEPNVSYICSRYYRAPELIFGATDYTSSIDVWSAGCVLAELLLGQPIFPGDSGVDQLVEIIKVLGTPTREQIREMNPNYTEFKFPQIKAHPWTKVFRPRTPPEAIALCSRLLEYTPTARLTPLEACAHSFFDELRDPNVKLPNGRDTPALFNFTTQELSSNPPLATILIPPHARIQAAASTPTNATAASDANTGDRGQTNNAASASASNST

EC50 [1] [nM] | EC50 (recombinant GSK3β kinase; [5]) [nM] | EC50 [2, 6] [µM] | EC50 [3] [nM] | EC50 [4, 7] [nM] | EC50 (recombinant GSK3β kinase) [nM] | EC50 [4] [nM] | SMILES | inhibition at 10 µM [1] [%] | EC50 ([2]; SH-SY5Y, read-out: pSer396 Tau EC50 (μM)) [µM] | inhibition at 10 µM [3] [%]
1100 | 56 | 0.798 | 1030 | 2 | – | – | O=C(Nc1cc2cc(-c3cccnc3)ccc2cn1)C1CC1 [Compound 6, N-(6-(Pyridin-3-yl)isoquinolin-3-yl)cyclopropanecarboxamide] | – | – | –
3840 | 247 | 2.2 | 9260 | 7 | – | – | O=C(CN1CCCC1)Nc1cc2cc(-c3cccnc3)ccc2cn1 [Compound 7, N-(6-(Pyridin-3-yl)isoquinolin-3-yl)-2-(pyrrolidin-1-yl)acetamide] | – | – | –
1280 | 652 | 0.795 | 1970 | 2 | – | – | CN1CCC(C(=O)Nc2cc3cc(-c4cccnc4)ccc3cn2)CC1 [Compound 8, 1-Methyl-N-(6-(pyridin-3-yl)isoquinolin-3-yl)piperidine-4-carboxamide] | – | – | –
> 10000 | 525 | 2.9 | > 10000 | 8 | – | – | O=C(CN1CCOCC1)Nc1cc2cc(-c3cccnc3)ccc2cn1 [Compound 10, 2-Morpholino-N-(6-(pyridin-3-yl)isoquinolin-3-yl)acetamide] | 15.3 | – | 3.7
> 10000 | 1120 | 5.8 | > 10000 | 20 | – | – | CN1CCN(CC(=O)Nc2cc3cc(-c4cccnc4)ccc3cn2)CC1 [Compound 11, 2-(4-Methylpiperazin-1-yl)-N-(6-(pyridin-3-yl)isoquinolin-3-yl)acetamide] | 10.8 | – | 8.5
> 10000 | 722 | 2.3 | 9860 | 17 | – | – | CN1CCCN(CC(=O)Nc2cc3cc(-c4cccnc4)ccc3cn2)CC1 [Compound 12, 2-(4-Methyl-1,4-diazepan-1-yl)-N-(6-(pyridin-3-yl)isoquinolin-3-yl) acetamide] | 39.8 | – | –
3600 | 111 | 1.6 | 9030 | 7 | – | – | Cc1nccn1CC(=O)Nc1cc2cc(-c3cccnc3)ccc2cn1 [Compound 14, 2-(2-Methyl-1H-imidazol-1-yl)-N-(6-(pyridin-3-yl)isoquinolin-3-yl) acetamide] | – | – | –
3100 | 97 | 1.1 | 4820 | 5 | – | – | O=C(Cn1ccnc1)Nc1cc2cc(-c3cccnc3)ccc2cn1 [Compound 15, 2-(1H-Imidazol-1-yl)-N-(6-(pyridin-3-yl)isoquinolin-3-yl)acetamide] | – | – | –
6730 | 974 | 4.6 | 9350 | 3 | – | – | CN1CCN(C[C@H]2CC[C@H](C(=O)Nc3cc4cc(-c5cncc(F)c5)ccc4cn3)CC2)CC1 [Compound 17, trans-N-(6-(5-Fluoropyridin-3-yl)isoquinolin-3-yl)-4-((4-methylpiperazin-1-yl)methyl)cyclohexane-1-carboxamide] | – | – | –
> 10000 | 1180 | – | > 10000 | 39 | – | – | O=C(CN1CCCC1)Nc1cc2cc(-c3cncc(F)c3)ccc2cn1 [Compound 18, N-(6-(5-Fluoropyridin-3-yl)isoquinolin-3-yl)-2-(pyrrolidin-1-yl)acetamide] | 9.2 | – | 5.8
> 10000 | – | – | > 10000 | – | 3280 | 31 | CN1CCN(CC(=O)Nc2cc3cc(-c4cncc(F)c4)ccc3cn2)CC1 [Compound 20, N-(6-(5-Fluoropyridin-3-yl)isoquinolin-3-yl)-2-(4-methylpiperazin-1-yl) acetamide] | 17.4 | – | 3.6
> 10000 | 6660 | – | > 10000 | 57 | – | – | CN1CCC(C(=O)Nc2cc3cc(-c4cncc(C#N)c4)ccc3cn2)CC1 [Compound 32, N-(6-(5-Cyanopyridin-3-yl)isoquinolin-3-yl)-1-methylpiperidine-4-carboxamide] | 24.2 | – | 5.1
319 | 193 | – | 375 | 1 | – | – | O=C(Nc1cc2cc(-c3cncc(NC4CCNCC4)n3)ccc2cn1)C1CCCCC1 [Compound 44, N-(6-(6-(piperidin-4-ylamino)pyrazin-2-yl)isoquinolin-3-yl) cyclohexanecarboxamide] | – | – | –
> 10000 | 1300 | – | > 10000 | 29 | – | – | CC(C)CN1CCCC(C(=O)Nc2cc3cc(-c4cnccn4)ccc3cn2)CC1 (stereo not shown) [Compound 81, 1-Isobutyl-N-(6-(pyrazin-2-yl)isoquinolin-3-yl)azepane-4-carboxamide] | 3.9 | – | 1.6
738 | 264 | – | 674 | 2 | – | – | O=C(Nc1cc2cc(-c3cncc(NC4CCNCC4)n3)ccc2cn1)C1CCOCC1 [Compound 109, N-(6-(6-(Piperidin-4-ylamino)pyrazin-2-yl)isoquinolin-3-yl)tetrahydro-2H-pyran-4-carboxamide] | – | – | –
3150 | > 10000 | – | > 10000 | 14 | – | – | CN1CCN(c2cc(C(=O)Nc3cc4cc(-c5cnc6ocnc6c5)ccc4cn3)ccn2)CC1 [Compound 132, 2-(4-Methylpiperazin-1-yl)-N-(6-(oxazolo[5,4-b]pyridin-6-yl)isoquinolin-3-yl)isonicotinamide] | – | – | 8.5
2590 | > 10000 | – | 2110 | 15 | – | – | Cc1cc2ncc(-c3ccc4cnc(NC(=O)c5ccnc(N6CCN(C)CC6)c5)cc4c3)cc2[nH]1 [Compound 135, N-(6-(2-Methyl-1H-pyrrolo[3,2-b]pyridin-6-yl)isoquinolin-3-yl)-2-(4-methylpiperazin-1-yl)isonicotinamide] | – | – | –
> 10000 | 1250 | – | > 10000 | 9 | – | – | O=C(CN1CCOCC1)Nc1cc2cc(-c3cccnc3)c(F)cc2cn1 [Compound 144, N-(7-Fluoro-6-(pyridin-3-yl)isoquinolin-3-yl)-2-morpholinoacetamide] | 23 | – | 9.4
> 10000 | 2890 | – | > 10000 | 13 | – | – | CN1CCN(CC(=O)Nc2cc3cc(-c4cccnc4)c(F)cc3cn2)CC1 [Compound 145, N-(7-Fluoro-6-(pyridin-3-yl)isoquinolin-3-yl)-2-(4-methylpiperazin-1-yl) acetamide] | 26.2 | – | 5.9
> 10000 | 1020 | – | > 10000 | 20 | – | – | COc1cncc(-c2ccc3cnc(NC(=O)CN4CCOCC4)cc3c2)c1 [Compound 147, N-(6-(5-Methoxypyridin-3-yl)isoquinolin-3-yl)-2-morpholinoacetamide] | 38.8 | – | 14.7
> 10000 | – | – | > 10000 | – | 795 | 13 | [2H]C1([2H])OC([2H])([2H])C([2H])([2H])N(CC(=O)Nc2cc3cc(-c4cccnc4)ccc3cn2)C1([2H])[2H] [Compound 151, 2-(Morpholino-d8)-N-(6-(pyridin-3-yl)isoquinolin-3-yl)acetamide] | 10.7 | – | 6

SMILES | EC50 [1] [nM] | EC50 (recombinant GSK3β kinase; [5]) [nM] | EC50 [2, 6] [µM] | EC50 [3] [nM] | EC50 [4, 7] [nM] | EC50 (recombinant GSK3β kinase) [nM] | EC50 [4] [nM] | inhibition at 10 µM [1] [%] | EC50 ([2]; SH-SY5Y, read-out: pSer396 Tau EC50 (μM)) [µM] | inhibition at 10 µM [3] [%]
O=C(Nc1cc2cc(-c3cccnc3)ccc2cn1)C12CCN(CC1)CC2 [Compound 9, N-(6-(Pyridin-3-yl)isoquinolin-3-yl)quinuclidine-4-carboxamide] | > 10000 | – | – | > 10000 | 26 | – | – | 11.8 | > 10 | 3.9
